Results taken from PubChem BioAssay AID248 (DTP/NCI, 2004).
Toxic doses and inconclusive results are not listed. Cut-off read from the data, not from the text of the source: active = T/C of 150% or more; inactive = T/C below 125%.

Test system: L1210 leukemia ip in BDF1 mice, survival T/C
Assay: NCI In Vivo Anticancer Drug Screen. Data for tumor model L1210 Leukemia (intraperitoneal) in B6D2F1 (BDF1) mice
Conditions: endpoint: mean survival time, higher = longer survival
In short: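 Tumor cells were implanted, animals were treated, and survival was followed. The result divides the treated measurement by the vehicle-control measurement.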

[1] = dose: 75.0 mg/kg/injection, schedule: Q04DX003 (ip), vehicle: Klucel (hydroxypropylcellulose) (HPC)
[2] = dose: 150.0 mg/kg/injection, schedule: Q04DX003 (ip), vehicle: Klucel (hydroxypropylcellulose) (HPC)
[3] = dose: 300.0 mg/kg/injection, schedule: Q04DX003 (ip), vehicle: Klucel (hydroxypropylcellulose) (HPC)
[4] = dose: 100.0 mg/kg/injection, schedule: Q04DX003 (ip), vehicle: saline with Tween-80
[5] = dose: 200.0 mg/kg/injection, schedule: Q04DX003 (ip), vehicle: saline with Tween-80
[6] = dose: 100.0 mg/kg/injection, schedule: Q04DX002 (ip), vehicle: saline with Tween-80
[7] = dose: 200.0 mg/kg/injection, schedule: Q04DX002 (ip), vehicle: saline with Tween-80
[8] = dose: 400.0 mg/kg/injection, schedule: Q04DX002 (ip), vehicle: saline with Tween-80
[9] = dose: 100.0 mg/kg/injection, schedule: Q01DX001 (ip), vehicle: saline
[10] = dose: 200.0 mg/kg/injection, schedule: Q01DX001 (ip), vehicle: saline
[11] = dose: 400.0 mg/kg/injection, schedule: Q01DX001 (ip), vehicle: saline
[12] = dose: 100.0 mg/kg/injection, schedule: Q04DX003 (ip), vehicle: Klucel (hydroxypropylcellulose) (HPC)
[13] = dose: 100.0 mg/kg/injection, schedule: Q04DX003 (ip), vehicle: saline
[14] = dose: 200.0 mg/kg/injection, schedule: Q04DX003 (ip), vehicle: saline
[15] = dose: 100.0 mg/kg/injection, schedule: Q04DX002 (ip), vehicle: Klucel (hydroxypropylcellulose) (HPC)
[16] = dose: 200.0 mg/kg/injection, schedule: Q04DX002 (ip), vehicle: Klucel (hydroxypropylcellulose) (HPC)
[17] = dose: 100.0 mg/kg/injection, schedule: Q01DX001 (ip), vehicle: saline with Tween-80
[18] = dose: 200.0 mg/kg/injection, schedule: Q01DX001 (ip), vehicle: saline with Tween-80
[19] = dose: 200.0 mg/kg/injection, schedule: Q04DX003 (ip), vehicle: Klucel (hydroxypropylcellulose) (HPC)
[20] = dose: 400.0 mg/kg/injection, schedule: Q01DX001 (ip), vehicle: saline with Tween-80
[21] = dose: 400.0 mg/kg/injection, schedule: Q04DX003 (ip), vehicle: Klucel (hydroxypropylcellulose) (HPC)

Measured: T/C

O=C(O)/C=C/c1ccc(O)cc1
inactive: [1] 97 % of control | [2] 101 % of control | [3] 109 % of control

CC(C)C(NC(=O)CCNC(=O)OCc1ccccc1)C(=O)O (stereo unspecified)
inactive: [4] 97 % of control | [5] 97 % of control | dose: 400.0 mg/kg/injection, schedule: Q04DX003 (ip), vehicle: saline with Tween-80 97 % of control

CCOC(=O)C12CCC(C(=O)OCC)(CC1=O)C(=O)C2
inactive: [6] 88 % of control | [7] 95 % of control | [8] 98 % of control

O=C(N/N=C/c1cc(Cl)ccc1O)c1cccc2ccccc12
inactive: [9] 94 % of control | [10] 92 % of control | [11] 86 % of control

O=S(=O)(F)c1cccc2nsnc12
inactive: dose: 25.0 mg/kg/injection, schedule: Q04DX003 (ip), vehicle: Klucel (hydroxypropylcellulose) (HPC) 95 % of control | dose: 50.0 mg/kg/injection, schedule: Q04DX003 (ip), vehicle: Klucel (hydroxypropylcellulose) (HPC) 101 % of control | [12] 87 % of control | dose: 100.0 mg/kg/injection, schedule: Q04DX003 (ip), vehicle: carboxymethylcellulose (CMC) 93 % of control | dose: 400.0 mg/kg/injection, schedule: Q04DX003 (ip), vehicle: carboxymethylcellulose (CMC) 104 % of control

CN(C)CCC#N
inactive: dose: 50.0 mg/kg/injection, schedule: Q01DX001 (ip), vehicle: saline 97 % of control | dose: 50.0 mg/kg/injection, schedule: Q01DX009 (ip), vehicle: saline 106 % of control | [9] 97 % of control | dose: 100.0 mg/kg/injection, schedule: Q01DX009 (ip), vehicle: saline 108 % of control | [13] 100 % of control | [10] 100 % of control | dose: 200.0 mg/kg/injection, schedule: Q01DX009 (ip), vehicle: saline 112 % of control | [14] 100 % of control | [11] 97 % of control

COc1ccc(CCC(=O)O)cc1
inactive: dose: 50.0 mg/kg/injection, schedule: Q04DX003 (ip), vehicle: gum acacia 98 % of control | dose: 100.0 mg/kg/injection, schedule: Q04DX003 (ip), vehicle: gum acacia 98 % of control | dose: 200.0 mg/kg/injection, schedule: Q04DX003 (ip), vehicle: gum acacia 95 % of control

CCOC(=O)C1NC(=O)C(C(=O)OCC)C1C(C)C (stereo unspecified)
inactive: [1] 102 % of control | dose: 100.0 mg/kg/injection, schedule: Q01DX001 (ip), vehicle: Klucel (hydroxypropylcellulose) (HPC) 103 % of control | [2] 98 % of control | dose: 200.0 mg/kg/injection, schedule: Q01DX001 (ip), vehicle: Klucel (hydroxypropylcellulose) (HPC) 103 % of control | [3] 100 % of control | dose: 400.0 mg/kg/injection, schedule: Q01DX001 (ip), vehicle: Klucel (hydroxypropylcellulose) (HPC) 109 % of control

CN(C)CCCNC(=O)C1C(c2ccccc2)C1c1ccccc1 (stereo unspecified)
inactive: dose: 12.5 mg/kg/injection, schedule: Q04DX002 (ip), vehicle: saline with Tween-80 102 % of control | dose: 25.0 mg/kg/injection, schedule: Q04DX002 (ip), vehicle: saline with Tween-80 102 % of control | dose: 50.0 mg/kg/injection, schedule: Q04DX002 (ip), vehicle: saline with Tween-80 91 % of control

CCCCOC(=O)C1OC1(CC)c1ccccc1 (stereo unspecified)
inactive: [6] 88 % of control | [7] 97 % of control | [8] 100 % of control

CCCP(C)(C)=S
inactive: [15] 90 % of control | [16] 90 % of control

Nc1ncnc(N)c1NC(=O)c1cccc(C(=O)c2ccccc2)c1
inactive: [13] 101 % of control | [14] 100 % of control | dose: 400.0 mg/kg/injection, schedule: Q04DX003 (ip), vehicle: saline 96 % of control

[N-]=[N+]=NC1=C(c2ccccc2)C(=O)C(N=[N+]=[N-])=C(c2ccccc2)C1=O
inactive: [9] 88 % of control | [10] 95 % of control | [11] 90 % of control

CSc1ncnc2c1ncn2-n1cccc1
inactive: [17] 104 % of control | dose: 100.0 mg/kg/injection, schedule: Q01DX009 (ip), vehicle: Klucel (hydroxypropylcellulose) (HPC) 97 % of control | [12] 93 % of control | [4] 103 % of control | [18] 106 % of control | dose: 200.0 mg/kg/injection, schedule: Q01DX009 (ip), vehicle: Klucel (hydroxypropylcellulose) (HPC) 95 % of control | [19] 96 % of control | [5] 101 % of control | [20] 95 % of control | dose: 400.0 mg/kg/injection, schedule: Q01DX009 (ip), vehicle: Klucel (hydroxypropylcellulose) (HPC) 101 % of control | [21] 98 % of control

Cc1ccc(S(=O)(=O)NC(=O)NCc2ccco2)cc1
inactive: [12] 94 % of control | [19] 86 % of control | [21] 89 % of control

CCNC1(c2cccs2)CCCCC1=O (stereo unspecified)
inactive: dose: 20.0 mg/kg/injection, schedule: Q04DX003 (ip), vehicle: saline 102 % of control | dose: 40.0 mg/kg/injection, schedule: Q04DX003 (ip), vehicle: saline 104 % of control | dose: 80.0 mg/kg/injection, schedule: Q04DX003 (ip), vehicle: saline 102 % of control

CCN(CC)c1ccc(/C=C2/C=Cc3ccccc32)cc1
inactive: dose: 100.0 mg/kg/injection, schedule: Q01DX001 (ip), vehicle: carboxymethylcellulose (CMC) 92 % of control | dose: 200.0 mg/kg/injection, schedule: Q01DX001 (ip), vehicle: carboxymethylcellulose (CMC) 90 % of control | dose: 400.0 mg/kg/injection, schedule: Q01DX001 (ip), vehicle: carboxymethylcellulose (CMC) 95 % of control

CC1CCCCC1C(=O)N1CCCCCC1 (stereo unspecified)
inactive: dose: 100.0 mg/kg/injection, schedule: Q04DX002 (ip), vehicle: saline 108 % of control | dose: 200.0 mg/kg/injection, schedule: Q04DX002 (ip), vehicle: saline 99 % of control | dose: 400.0 mg/kg/injection, schedule: Q04DX002 (ip), vehicle: saline 108 % of control

Nc1cc(C(=O)O)c2ccccc2c1
inactive: [9] 89 % of control | [10] 106 % of control | [11] 95 % of control

C=CCNC(=O)/C=C\C(=O)O
inactive: [15] 99 % of control | [16] 96 % of control

O=C(O)NNC(=O)NO
inactive: [17] 94 % of control | [18] 94 % of control | [20] 92 % of control

CC(O)C(=O)[O][Hg][c]1ccccc1 (stereo unspecified)
inactive: dose: 2.5 mg/kg/injection, schedule: Q01DX009 (ip), vehicle: saline with Tween-80 91 % of control | dose: 2.5 mg/kg/injection, schedule: Q04DX003 (ip), vehicle: saline with Tween-80 92 % of control | dose: 5.0 mg/kg/injection, schedule: Q01DX009 (ip), vehicle: saline with Tween-80 94 % of control | dose: 5.0 mg/kg/injection, schedule: Q04DX003 (ip), vehicle: saline with Tween-80 105 % of control | dose: 10.0 mg/kg/injection, schedule: Q01DX009 (ip), vehicle: saline with Tween-80 98 % of control | dose: 10.0 mg/kg/injection, schedule: Q04DX003 (ip), vehicle: saline with Tween-80 108 % of control
